This note sets out measurements from patent US12247031B2, “Cyclobutyl pyrazolopyrimidine PDE9 inhibitors” (Merck Sharp & Dohme LLC, priority 2018, dated 2025).

For this assay, the target named is Human PDE9 (PDE9A2) (Homo sapiens (Human), UniProt O76083). Put plainly: PDE9 IMAP fluorescence polarization assay. It counts as biochemical. As to conditions: human PDE9A2, FAM-cGMP substrate 50 nM, IMAP FP, apparent inhibition constant. As to the method:
The activity of the compounds in accordance with the present invention as PDE9 inhibitors may be readily determined without undue experimentation using a fluorescence polarization (FP) methodology that is well known in the art (Huang, W., et al., J. Biomol Screen. 2002, 7: 215).
In a typical experiment the PDE9 inhibitory activity of the compounds of the present invention was determined in accordance with the following experimental method.
Human PDE9 (PDE9A2, GenBank Accession No. NM_001001567), full length with N-terminal GST tag, was purchased from BPS Bioscience. The fluorescence polarization assay for cyclic nucleotide phosphodiesterases was performed using an IMAP® FP kit supplied by Molecular Devices, Sunnyvale, CA (product #R8139). IMAP® technology has been applied previously to phosphodiesterase assays (Huang, W., et al., J. Biomol Screen. 2002, 7: 215).
Fluorescence polarization (mP) was calculated from the parallel (S) and perpendicular (P) fluorescence of each sample well and the analogous values for the median control well, containing only substrate (So and Po), using the following equation: Polarization (mP)=1000*(S/So−P/Po)/(S/So+P/Po).
Dose-inhibition profiles for each compound were characterized by fitting the mP data to a four-parameter equation given below. The apparent inhibition constant (KI), the maximum inhibition at the low plateau relative to “100% Inhibition Control” (Imax; e.g. 1=>same as this control), the minimum inhibition at the high plateau relative to the “0% Inhibition Control” (Imin, e.g. 0=>same as the no drug control) and the Hill slope (nH) are determined by a non-linear least squares fitting of the mP values as a function of dose of the compound using an in-house software based on the procedures described by Mosser et al., JALA. 2003, 8: 54-63, using the following equation: […]
Regarding `CC(c1ccc(C(F)(F)F)nc1)n1nc(C#N)c2c(=O)[nH]c(C3CCC3n3cc(C#N)cn3)nc21` (single isomer, unassigned) [Example 25, 6-(2-(4-cyano-1H-pyrazol-1-yl)cyclobutyl)-4-oxo-1-(1-(6-(trifluoromethyl)pyridin-3-yl)ethyl)-4,5-dihydro-1H-pyrazolo[3,4-d]pyrimidine-3-carbonitrile], the Ki was 0.00035 µM.

Take `CC(c1ccc(C(F)(F)F)nc1)n1nc(C#N)c2c(=O)[nH]c(C3CCC3n3ccc(C#N)n3)nc21` (single isomer, unassigned) [Example 29, 6-(2-(3-cyano-1H-pyrazol-1-yl)cyclobutyl)-4-oxo-1-(1-(6-(trifluoromethyl)pyridin-3-yl)ethyl)-4,5-dihydro-1H-pyrazolo[3,4-d]pyrimidine-3-carbonitrile]: the Ki came out at 0.000256 µM.

`C[C@@H](c1ccc(C(F)(F)F)nc1)n1nc(C#N)c2c(=O)[nH]c(C3CCC3c3ccn(C)n3)nc21` (single isomer, unassigned) [Example 18]: the Ki was found to be 0.0359 µM.

In the case of `CC(c1ccc(C(F)(F)F)nc1)n1nc(C#N)c2c(=O)[nH]c(C3CCC3n3ccc(C#N)n3)nc21` (single isomer, unassigned) [Example 27, 6-(2-(3-cyano-1H-pyrazol-1-yl)cyclobutyl)-4-oxo-1-(1-(6-(trifluoromethyl)pyridin-3-yl)ethyl)-4,5-dihydro-1H-pyrazolo[3,4-d]pyrimidine-3-carbonitrile], the Ki is 0.00151 µM.

As for `CC(c1ccc(C(F)(F)F)nc1)n1nc(C#N)c2c(=O)[nH]c(C3CCC3n3ccc(C#N)n3)nc21` (single isomer, unassigned) [Example 28, 6-(2-(3-cyano-1H-pyrazol-1-yl)cyclobutyl)-4-oxo-1-(1-(6-(trifluoromethyl)pyridin-3-yl)ethyl)-4,5-dihydro-1H-pyrazolo[3,4-d]pyrimidine-3-carbonitrile], the Ki was determined as 0.031 µM.

On to `C[C@@H](c1ccc(C(F)(F)F)nc1)n1nc(C#N)c2c(=O)[nH]c(C3CCC3c3cncnc3)nc21` (single isomer, unassigned) [Example 21], for which the Ki was determined as 0.176 µM.

With `C[C@@H](c1ccc(C(F)(F)F)nc1)n1nc(C#N)c2c(=O)[nH]c(C3CCC3c3ncccc3F)nc21` (single isomer, unassigned) [Example 15], the Ki was determined as 0.0141 µM.

As for `C[C@@H](c1ccc(C(F)(F)F)nc1)n1nc(C#N)c2c(=O)[nH]c(C3CCC3n3cc(C4CC4)cn3)nc21` (single isomer, unassigned) [Example 38], the Ki was found to be 0.011 µM.

In the case of `CC(c1ccc(C(F)(F)F)nc1)n1nc(C#N)c2c(=O)[nH]c(C3CCC3n3cc(C(F)F)cn3)nc21` (stereo not shown) [Example 45, 6-(2-(4-(difluoromethyl)-1H-pyrazol-1-yl)cyclobutyl)-4-oxo-1-(1-(6-(trifluoromethyl)pyridin-3-yl)ethyl)-4,5-dihydro-1H-pyrazolo[3,4-d]pyrimidine-3-carbonitrile], the Ki was found to be 0.115 µM.

In the case of `CC(C1CCOCC1)n1nc(C#N)c2c(=O)[nH]c(C3CCC3n3cccn3)nc21` (stereo not shown) [Example 46, 6-(2-(1H-pyrazol-1-yl)cyclobutyl)-4-oxo-1-(1-(tetrahydro-2H-pyran-4-yl)ethyl)-4,5-dihydro-1H-pyrazolo[3,4-d]pyrimidine-3-carbonitrile], the Ki was found to be 0.608 µM.

On to `C[C@@H](c1ccc(C(F)(F)F)nc1)n1nc(C#N)c2c(=O)[nH]c(C3CCC3n3cc(C4CC4)cn3)nc21` (single isomer, unassigned) [Example 39], for which the Ki was found to be 0.00175 µM.

Consider `C[C@@H](c1ccc(C(F)(F)F)nc1)n1nc(C#N)c2c(=O)[nH]c(C3CCC3c3cncnc3)nc21` (single isomer, unassigned) [Example 20], for which the Ki came out at 0.000602 µM.

Consider `C[C@@H](c1ccc(C(F)(F)F)nc1)n1nc(C#N)c2c(=O)[nH]c(C3CCC3c3cncnc3)nc21` (stereo partly drawn) [Example 23, 4-oxo-6-(2-(pyrimidin-5-yl)cyclobutyl)-1-((S)-1-(6-(trifluoromethyl)pyridin-3-yl)ethyl)-4,5-dihydro-1H-pyrazolo[3,4-d]pyrimidine-3-carbonitrile], for which the Ki is 0.608 µM.

In the case of `C[C@@H](c1ccc(C(F)(F)F)nc1)n1nc(C#N)c2c(=O)[nH]c(C3CCC3c3ccc(F)cn3)nc21` (single isomer, unassigned) [Example 14], the Ki is 0.00012 µM.

In the case of `Cc1nnc(C2CCC2c2nc3c(c(C#N)nn3C(C)c3ccc(C(F)(F)F)nc3)c(=O)[nH]2)o1` (single isomer, unassigned) [Example 6, 6-(2-(5-methyl-1,3,4-oxadiazol-2-yl)cyclobutyl)-4-oxo-1-(1-(6-(trifluoromethyl)pyridin-3-yl)ethyl)-4,5-dihydro-1H-pyrazolo[3,4-d]pyrimidine-3-carbonitrile], the Ki was determined as 0.0427 µM.

`C[C@@H](c1ccc(C(F)(F)F)nc1)n1nc(C#N)c2c(=O)[nH]c(C3CCC3n3cccn3)nc21` (single isomer, unassigned) [Example 37]: the Ki worked out at 0.124 µM.
